ChEMBL document CHEMBL3351564, “Discovery of a phosphodiesterase 9A inhibitor as a potential hypoglycemic agent” (J Med Chem, 2014)
pIC50: −log10 of the molar value. In brackets after ≈: the same amount, converted by molar mass.

What was measured:
[1] = Apparent clearance in CD-1 mouse liver microsomes at […] incubated for 5 mins prior to NADPH addition measured after 30 mins by LC/MS/MS analysis; format: ADME; settings: read-out: CL(app)
[2] = Hepatic clearance in CD-1 mouse liver microsomes at […] incubated for 5 mins prior to NADPH addition measured after 30 mins by LC/MS/MS analysis; format: ADME
[3] = target: High affinity cGMP-specific 3',5'-cyclic phosphodiesterase 9A (Homo sapiens, UniProt O76083); test: Inhibition of PDE9A2 catalytic domain (unknown origin) using [3H]-cGMP/[3H]-cAMP as substrate after 15 mins by liquid scintillation counting analysis
High affinity cGMP-specific 3',5'-cyclic phosphodiesterase 9A, sequence (O76083 whole entry, the tested form may be a part): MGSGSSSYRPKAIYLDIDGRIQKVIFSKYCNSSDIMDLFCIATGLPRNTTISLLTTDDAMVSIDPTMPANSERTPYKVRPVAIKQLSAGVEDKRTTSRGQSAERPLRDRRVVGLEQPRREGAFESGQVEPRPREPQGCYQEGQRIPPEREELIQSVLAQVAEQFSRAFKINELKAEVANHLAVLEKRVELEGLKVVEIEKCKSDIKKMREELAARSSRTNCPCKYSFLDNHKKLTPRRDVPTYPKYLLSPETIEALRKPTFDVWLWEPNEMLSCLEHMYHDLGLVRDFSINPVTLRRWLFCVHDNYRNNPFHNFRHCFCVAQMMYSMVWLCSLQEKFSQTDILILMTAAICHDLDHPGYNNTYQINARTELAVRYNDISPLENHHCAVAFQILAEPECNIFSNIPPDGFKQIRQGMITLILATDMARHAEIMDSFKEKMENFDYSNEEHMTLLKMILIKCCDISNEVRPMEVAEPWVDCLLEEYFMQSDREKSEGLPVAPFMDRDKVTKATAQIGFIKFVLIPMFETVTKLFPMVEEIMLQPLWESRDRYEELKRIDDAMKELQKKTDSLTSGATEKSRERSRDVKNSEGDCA

[4] = target: High affinity 3',5'-cyclic-AMP phosphodiesterase 7A (Homo sapiens, UniProt Q13946); test: Inhibition of PDE7A1 catalytic domain (unknown origin) using [3H]-cGMP/[3H]-cAMP as substrate after 15 mins by liquid scintillation counting analysis
High affinity 3',5'-cyclic-AMP phosphodiesterase 7A, sequence (Q13946 whole entry, the tested form may be a part): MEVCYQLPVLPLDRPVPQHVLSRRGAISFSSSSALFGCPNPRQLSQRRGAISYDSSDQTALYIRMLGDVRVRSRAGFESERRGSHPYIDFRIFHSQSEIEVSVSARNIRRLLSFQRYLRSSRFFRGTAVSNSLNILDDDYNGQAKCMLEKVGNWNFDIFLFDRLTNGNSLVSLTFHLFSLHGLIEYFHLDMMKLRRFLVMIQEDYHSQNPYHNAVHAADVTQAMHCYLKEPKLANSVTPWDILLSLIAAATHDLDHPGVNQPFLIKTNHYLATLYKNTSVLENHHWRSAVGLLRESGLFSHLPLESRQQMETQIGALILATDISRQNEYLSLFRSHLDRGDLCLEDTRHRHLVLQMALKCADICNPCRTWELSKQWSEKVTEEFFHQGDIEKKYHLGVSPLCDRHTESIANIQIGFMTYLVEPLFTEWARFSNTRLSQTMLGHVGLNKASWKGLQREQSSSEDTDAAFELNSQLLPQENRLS

[5] = target: High affinity cAMP-specific and IBMX-insensitive 3',5'-cyclic phosphodiesterase 8A (Homo sapiens, UniProt O60658); test: Inhibition of PDE8A1 catalytic domain (unknown origin) using [3H]-cGMP/[3H]-cAMP as substrate after 15 mins by liquid scintillation counting analysis
High affinity cAMP-specific and IBMX-insensitive 3',5'-cyclic phosphodiesterase 8A, sequence (O60658 whole entry, the tested form may be a part): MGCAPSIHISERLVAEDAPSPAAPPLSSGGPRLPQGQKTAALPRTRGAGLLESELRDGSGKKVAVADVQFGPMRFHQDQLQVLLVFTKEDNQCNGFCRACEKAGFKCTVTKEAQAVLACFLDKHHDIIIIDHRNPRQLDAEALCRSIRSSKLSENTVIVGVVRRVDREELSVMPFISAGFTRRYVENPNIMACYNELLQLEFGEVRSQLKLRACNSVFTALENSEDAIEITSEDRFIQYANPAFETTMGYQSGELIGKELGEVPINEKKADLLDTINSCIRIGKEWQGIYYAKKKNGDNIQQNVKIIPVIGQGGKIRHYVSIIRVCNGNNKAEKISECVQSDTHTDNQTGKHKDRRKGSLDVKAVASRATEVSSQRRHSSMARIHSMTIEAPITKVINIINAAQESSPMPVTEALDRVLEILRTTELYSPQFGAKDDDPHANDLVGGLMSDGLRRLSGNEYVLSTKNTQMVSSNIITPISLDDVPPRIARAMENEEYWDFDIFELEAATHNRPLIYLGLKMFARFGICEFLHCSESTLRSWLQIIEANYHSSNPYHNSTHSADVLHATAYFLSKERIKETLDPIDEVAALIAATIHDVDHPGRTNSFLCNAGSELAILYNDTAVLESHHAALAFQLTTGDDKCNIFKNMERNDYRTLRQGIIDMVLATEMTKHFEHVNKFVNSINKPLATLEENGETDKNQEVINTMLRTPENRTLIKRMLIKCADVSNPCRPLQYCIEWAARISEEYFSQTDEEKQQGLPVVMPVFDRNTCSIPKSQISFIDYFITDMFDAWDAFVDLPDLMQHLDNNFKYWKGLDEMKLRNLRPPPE

HepG2 [6] = test: Hypoglycemic effect in human HepG2 cells assessed as reduction of 8-Br-cAMP/dexamethasone-induced G-6-Pase mRNA expression at 100 nM (reference value: 233%); format: functional; design: scale not given: the % may be the effect or the level left
HepG2 [7] = test: Hypoglycemic effect in human HepG2 cells assessed as reduction of 8-Br-cAMP/dexamethasone-induced G-6-Pase mRNA expression at 10 nM (reference value: 233%); format: functional; design: scale not given: the % may be the effect or the level left
HepG2 [8] = test: Hypoglycemic effect in human HepG2 cells assessed as reduction of 8-Br-cAMP/dexamethasone-induced PEPCK mRNA expression at 1000 nM (reference value: 184%); format: functional; design: scale not given: the % may be the effect or the level left
HepG2 [9] = test: Hypoglycemic effect in human HepG2 cells assessed as reduction of 8-Br-cAMP/dexamethasone-induced PEPCK mRNA expression at 100 nM (reference value: 184%); format: functional; design: scale not given: the % may be the effect or the level left
HepG2 [10] = test: Hypoglycemic effect in human HepG2 cells assessed as reduction of 8-Br-cAMP/dexamethasone-induced PEPCK mRNA expression at 10 nM (reference value: 184%); format: functional; design: scale not given: the % may be the effect or the level left
[11] = target: cGMP-dependent 3',5'-cyclic phosphodiesterase (Homo sapiens, UniProt O00408); test: Inhibition of PDE2A3 catalytic domain (unknown origin) using [3H]-cGMP/[3H]-cAMP as substrate after 15 mins by liquid scintillation counting analysis
cGMP-dependent 3',5'-cyclic phosphodiesterase, sequence (O00408 whole entry, the tested form may be a part): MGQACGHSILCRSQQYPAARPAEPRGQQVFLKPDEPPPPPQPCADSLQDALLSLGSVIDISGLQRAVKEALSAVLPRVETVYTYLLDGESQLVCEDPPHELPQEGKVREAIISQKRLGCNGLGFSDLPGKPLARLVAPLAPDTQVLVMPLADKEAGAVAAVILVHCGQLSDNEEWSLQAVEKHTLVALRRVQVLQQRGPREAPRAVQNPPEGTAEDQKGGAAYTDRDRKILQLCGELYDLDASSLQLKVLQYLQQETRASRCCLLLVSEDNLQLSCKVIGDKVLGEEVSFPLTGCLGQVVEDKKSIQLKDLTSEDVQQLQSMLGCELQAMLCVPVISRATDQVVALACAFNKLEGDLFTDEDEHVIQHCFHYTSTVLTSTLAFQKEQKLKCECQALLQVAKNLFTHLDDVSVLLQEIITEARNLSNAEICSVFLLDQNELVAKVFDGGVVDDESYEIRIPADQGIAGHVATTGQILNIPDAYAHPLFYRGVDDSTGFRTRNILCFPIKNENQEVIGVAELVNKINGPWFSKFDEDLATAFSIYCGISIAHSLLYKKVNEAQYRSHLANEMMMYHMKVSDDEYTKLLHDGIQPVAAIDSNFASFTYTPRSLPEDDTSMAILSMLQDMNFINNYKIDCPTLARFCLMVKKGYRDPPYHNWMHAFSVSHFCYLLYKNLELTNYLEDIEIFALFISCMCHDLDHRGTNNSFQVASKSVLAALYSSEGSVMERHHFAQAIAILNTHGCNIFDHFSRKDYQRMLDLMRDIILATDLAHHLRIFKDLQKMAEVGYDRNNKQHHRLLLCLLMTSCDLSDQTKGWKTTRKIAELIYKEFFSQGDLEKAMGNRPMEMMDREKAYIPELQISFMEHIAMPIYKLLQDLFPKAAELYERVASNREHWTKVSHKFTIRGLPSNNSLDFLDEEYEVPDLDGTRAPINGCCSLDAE

[12] = Plasma protein binding in human at 1 to 5 uM after 4 hrs by LC/MS/MS analysis; format: ADME, cell-free; settings: read-out: PPB
[13] = Solubility of the compound in simulated gastric fluid at pH 1.4 after 24 to 48 hrs by HPLC analysis; format: ADME; settings: simulated gi fluid
Liver = test: Half life in CD-1 mouse liver microsomes at […] incubated for 5 mins prior to NADPH addition measured after 30 mins by LC/MS/MS analysis; format: ADME; settings: 0.5 h
Mus musculus [14] = test: Acute toxicity in KM mouse assessed as poisoned symptom at 1 to 1200 mg/kg, po measured up to 2 weeks; format: organism-based; design: dose 1-1200 mg/kg, route oral; settings: in vivo, 336 h
Mus musculus [15] = test: Acute toxicity in KM mouse assessed as mortality at 1 to 1200 mg/kg, po measured up to 2 weeks; format: organism-based; design: dose 1-1200 mg/kg, route oral; settings: in vivo, 336 h
Mus musculus [16] = test: Acute toxicity in KM mouse assessed as abnormal behaviour at 1 to 1200 mg/kg, po measured up to 2 weeks; format: organism-based; design: dose 1-1200 mg/kg, route oral; settings: in vivo, 336 h
Mus musculus [17] = test: Acute toxicity in KM mouse assessed as change in water/food consumption at 1 to 1200 mg/kg, po measured up to 2 weeks; format: organism-based; design: dose 1-1200 mg/kg, route oral; settings: in vivo, 336 h
Mus musculus [18] = test: Acute toxicity in KM mouse assessed as change in body weight at 1 to 1200 mg/kg, po measured up to 2 weeks; format: organism-based; design: dose 1-1200 mg/kg, route oral; settings: in vivo, 336 h
HepG2 [19] = test: Hypoglycemic effect in human HepG2 cells assessed as reduction of 8-Br-cAMP/dexamethasone-induced G-6-Pase mRNA expression at 1000 nM (reference value: 233%); format: functional; design: scale not given: the % may be the effect or the level left
[20] = Solubility of the compound in simulated intestinal fluid at pH 6.8 after 24 to 48 hrs by HPLC analysis; format: ADME; settings: simulated gi fluid
in vitro = settings: CD-1, mouse, liver microsomes
[21] = target: cGMP-inhibited 3',5'-cyclic phosphodiesterase 3A (Homo sapiens, UniProt Q14432); test: Inhibition of PDE3A catalytic domain (unknown origin) using [3H]-cGMP/[3H]-cAMP as substrate after 15 mins by liquid scintillation counting analysis
cGMP-inhibited 3',5'-cyclic phosphodiesterase 3A, sequence (Q14432 whole entry, the tested form may be a part): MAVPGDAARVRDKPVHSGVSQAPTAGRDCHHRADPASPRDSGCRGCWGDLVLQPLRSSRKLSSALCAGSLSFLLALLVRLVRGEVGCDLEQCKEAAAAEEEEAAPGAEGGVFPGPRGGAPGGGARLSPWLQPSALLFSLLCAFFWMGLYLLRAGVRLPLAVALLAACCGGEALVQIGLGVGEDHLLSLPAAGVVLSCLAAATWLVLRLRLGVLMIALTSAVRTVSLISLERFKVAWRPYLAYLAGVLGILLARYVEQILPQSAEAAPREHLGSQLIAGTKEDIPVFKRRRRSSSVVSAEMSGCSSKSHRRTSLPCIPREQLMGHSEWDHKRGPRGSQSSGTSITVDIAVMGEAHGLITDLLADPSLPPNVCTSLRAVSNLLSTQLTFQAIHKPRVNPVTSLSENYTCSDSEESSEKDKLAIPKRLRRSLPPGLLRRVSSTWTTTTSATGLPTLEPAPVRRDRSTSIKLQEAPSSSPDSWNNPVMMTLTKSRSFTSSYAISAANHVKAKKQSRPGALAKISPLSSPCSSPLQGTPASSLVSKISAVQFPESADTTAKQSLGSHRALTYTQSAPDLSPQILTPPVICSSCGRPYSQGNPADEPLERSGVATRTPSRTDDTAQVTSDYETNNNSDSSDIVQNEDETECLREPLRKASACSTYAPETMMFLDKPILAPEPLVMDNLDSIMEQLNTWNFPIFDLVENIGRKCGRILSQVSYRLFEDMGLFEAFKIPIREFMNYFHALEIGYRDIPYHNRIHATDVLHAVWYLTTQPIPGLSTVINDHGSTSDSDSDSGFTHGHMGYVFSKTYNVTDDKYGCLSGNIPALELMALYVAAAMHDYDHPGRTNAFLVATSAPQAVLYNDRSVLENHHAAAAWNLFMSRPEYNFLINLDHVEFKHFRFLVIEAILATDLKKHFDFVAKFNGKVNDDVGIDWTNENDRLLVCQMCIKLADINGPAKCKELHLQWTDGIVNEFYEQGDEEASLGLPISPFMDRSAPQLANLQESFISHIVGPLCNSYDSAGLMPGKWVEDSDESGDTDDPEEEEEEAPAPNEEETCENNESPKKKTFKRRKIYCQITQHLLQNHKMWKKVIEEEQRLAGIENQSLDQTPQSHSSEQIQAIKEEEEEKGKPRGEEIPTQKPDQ

Row | Compound | CLint scaled at […] [1] [mL/min/kg] | CLhep predicted at […] [2] [mL/min/kg] | pIC50 [4] | pIC50 [5] | pIC50 [11] | fraction unbound at 4 h, up to 5 µM [12] | solubility [13] [µg/mL] | t1/2 (Liver) [min] | solubility [20] [µg/mL] | further results
1 | CC(=O)CC(c1ccccc1)c1c(O)c2ccccc2oc1=O (stereo not drawn) [WARFARIN] | 30.9 | 23 |  |  |  |  |  |  |  | 
2 | COc1ccc(NC(=O)[C@@H](C)Nc2nc3c(cnn3-c3ccccc3Cl)c(=O)[nH]2)cc1 |  |  | 4.29 | < 4.00 |  |  |  |  |  | pIC50 [3]: 8.19
3 | COc1ccc(NC(=O)[C@@H](C)Nc2nc3c(cnn3C3CCCC3)c(=O)[nH]2)cc1 | 244 | 65.8 |  | < 4.00 | 4.89 | < 0.057 | 26 (≈ 65.6 µM) | 22.3 |  | Activity (HepG2 [6]): 93.2%; Activity (HepG2 [7]): 98.4%; Activity (HepG2 [8]): 105%; Activity (HepG2 [9]): 96.5%; Activity (HepG2 [10]): 108%; Activity (Mus musculus [14]): Non-toxic; Activity (Mus musculus [15]): Non-toxic; Activity (Mus musculus [16]): Non-toxic; Activity (Mus musculus [17]): Non-toxic; Activity (Mus musculus [18]): Non-toxic; Activity (HepG2 [19]): 97.2%
4 | COc1ccc(NC(=O)[C@H](C)Nc2nc3c(cnn3C3CCCC3)c(=O)[nH]2)cc1 |  |  |  | < 4.00 |  | < 0.057 | 23 (≈ 58 µM) |  | 31 (≈ 78.2 µM) | 
5 | C[C@]12CC[C@H]3[C@@H](CCC4=CC(=O)CC[C@@]43C)[C@@H]1CC[C@@H]2O [TESTOSTERONE] | 2730 | 87.1 |  |  |  |  |  | 2 |  | hepatic extraction ratio at 0.5 h, […] (in vitro): 0.968
6 | COc1ccc(NC(=O)[C@H](C)Nc2nc3c(cnn3-c3ccccc3Cl)c(=O)[nH]2)cc1 |  |  | < 4.00 | < 4.00 | < 4.30 | < 0.057 | 8 (≈ 18.2 µM) |  | 13 (≈ 29.6 µM) | pIC50 [21]: < 4.30
